Source: ChEMBL document CHEMBL1201862, “PubChem BioAssay data set” (2004)
Several values for one entry are separate records, joined by “and”; a condition that tells them apart may be missing. Equal values may be shown once.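 1) Cells in 96-well plates. 2) Compound, 48 h, 5 concentrations. 3) Linear interpolation between surrounding doses. 4) Unreached endpoint = highest concentration. Here, GI50 denotes the concentration required for 50% inhibition of growth.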 Activity calls are given as the source filed them. No stated cut-off is given here; in the data, active = GI50 up to about 1.1 µM and inactive = higher.

How the values were obtained:
Assay in all cases: DTP human tumour cell line panel, 48 h
786-0 = tested on: 786-0
A498 = tested on: A498
A549 = tested on: A549
ACHN = tested on: ACHN
BT-549 = tested on: BT-549
CAKI-1 = tested on: CAKI-1
COLO 205 = tested on: COLO 205
DLD-1 = tested on: DLD-1
DU-145 = tested on: DU-145
EKVX = tested on: EKVX
HCC 2998 = tested on: HCC 2998
HCT-116 = tested on: HCT-116
HCT-15 = tested on: HCT-15
HL-60 = tested on: HL-60
HOP-62 = tested on: HOP-62
HOP-92 = tested on: HOP-92
Hs-578T = tested on: Hs-578T
IGROV-1 = tested on: IGROV-1
K562 = tested on: K562
KM-20L2 = tested on: KM-20L2
KM12 = tested on: KM12
LOX IMVI = tested on: LOX IMVI
LXFL 529 = tested on: LXFL 529
M14 = tested on: M14
MCF7 = tested on: MCF7
MDA-MB-231 = tested on: MDA-MB-231
MDA-MB-435 = tested on: MDA-MB-435
MDA-N = tested on: MDA-N
MOLT-4 = tested on: MOLT-4
Malme-3M = tested on: Malme-3M
NCI-H226 = tested on: NCI-H226
NCI-H23 = tested on: NCI-H23
NCI-H522 = tested on: NCI-H522
NCI/ADR-RES = tested on: NCI/ADR-RES
OVCAR-3 = tested on: OVCAR-3
OVCAR-4 = tested on: OVCAR-4
OVCAR-5 = tested on: OVCAR-5
OVCAR-8 = tested on: OVCAR-8
PC-3 = tested on: PC-3
RXF 393 = tested on: RXF 393
SF-268 = tested on: SF-268
SF-295 = tested on: SF-295
SF-539 = tested on: SF-539
SK-MEL-28 = tested on: SK-MEL-28
SK-MEL-2 = tested on: SK-MEL-2
SK-MEL-5 = tested on: SK-MEL-5
SK-OV-3 = tested on: SK-OV-3
SN12C = tested on: SN12C
SNB-19 = tested on: SNB-19
SNB-75 = tested on: SNB-75
SNB-78 = tested on: SNB-78
SW-620 = tested on: SW-620
T47D = tested on: T47D
U-251 = tested on: U-251
UACC-257 = tested on: UACC-257
UACC-62 = tested on: UACC-62
XF498 = tested on: XF498
CCRF-CEM = tested on: CCRF-CEM
DMS-114 = tested on: DMS-114
DMS-273 = tested on: DMS-273
HOP-18 = tested on: HOP-18
M19-MEL = tested on: M19-MEL
NCI-H460 = tested on: NCI-H460
RPMI-8226 = tested on: RPMI-8226
SR = tested on: SR
TK-10 = tested on: TK-10
UO-31 = tested on: UO-31

Measured: GI50

COc1cc2c(cc1OC)C1Cc3cc(OC)c(OC)cc3C(C2)N1C
inactive: 786-0 > 75 µM | A498 > 75 µM | A549 > 100 µM | ACHN > 100 µM | BT-549 > 75 µM | CAKI-1 85.1 µM | COLO 205 > 75 µM | DLD-1 > 100 µM | DU-145 > 75 µM | EKVX > 100 µM | HCC 2998 > 75 µM | HCT-116 26.9 µM | HL-60 14.9 µM | HOP-62 > 75 µM and 44.3 µM | HOP-92 7.71 µM | Hs-578T > 75 µM | IGROV-1 > 75 µM | K562 > 100 µM | KM-20L2 > 100 µM | KM12 44.3 µM | LOX IMVI 48 µM | LXFL 529 > 100 µM | M14 > 100 µM | MCF7 > 75 µM | MDA-MB-435 > 75 µM | MDA-N 63.1 µM | MOLT-4 > 75 µM | Malme-3M > 75 µM | NCI-H226 > 75 µM | NCI-H23 > 100 µM and 54.7 µM | NCI-H522 > 100 µM | NCI/ADR-RES > 75 µM | OVCAR-3 > 100 µM | OVCAR-4 > 100 µM | OVCAR-5 > 100 µM | OVCAR-8 > 100 µM | PC-3 > 75 µM | RXF 393 > 75 µM | SF-268 > 100 µM | SF-295 40.6 µM | SF-539 20.8 µM | SK-MEL-28 > 100 µM | SK-MEL-2 > 75 µM | SK-MEL-5 > 100 µM | SK-OV-3 > 75 µM | SN12C > 100 µM and 62.5 µM | SNB-19 > 100 µM | SNB-75 > 100 µM | SNB-78 > 100 µM | SW-620 > 100 µM | T47D > 75 µM | U-251 > 100 µM | UACC-257 > 100 µM | UACC-62 61.1 µM | XF498 > 100 µM
active: MDA-MB-231 0.0297 µM
> 100 µM: HCT-15

Cc1ccc(S(=O)(=O)OCOS(=O)(=O)c2ccc(C)cc2)cc1
> 100 µM: HCT-15
inactive: 786-0 > 100 µM | A549 > 100 µM | ACHN > 100 µM | CCRF-CEM > 100 µM | COLO 205 > 100 µM | DLD-1 > 100 µM | DMS-114 > 100 µM | DMS-273 > 100 µM | EKVX > 100 µM | HCC 2998 > 100 µM | HCT-116 > 100 µM | HL-60 > 100 µM | HOP-18 > 100 µM | HOP-62 > 100 µM | IGROV-1 > 100 µM | K562 > 100 µM | KM-20L2 > 100 µM | KM12 > 100 µM | LOX IMVI > 100 µM | LXFL 529 > 100 µM | M14 > 100 µM | M19-MEL > 100 µM | MOLT-4 > 100 µM | Malme-3M > 100 µM | NCI-H23 > 100 µM | NCI-H460 58.1 µM | NCI-H522 > 100 µM | OVCAR-3 > 100 µM | OVCAR-5 > 100 µM | OVCAR-8 > 100 µM | RPMI-8226 > 100 µM | RXF 393 > 100 µM | SF-268 > 100 µM | SF-295 > 100 µM | SF-539 > 100 µM | SK-MEL-28 > 100 µM | SK-MEL-2 > 100 µM | SK-MEL-5 > 100 µM | SK-OV-3 > 100 µM | SN12C > 100 µM | SNB-19 > 100 µM | SNB-78 > 10 µM | SR > 100 µM | SW-620 > 100 µM | TK-10 > 100 µM | U-251 > 100 µM | UACC-257 > 100 µM | UACC-62 > 10 µM | UO-31 > 100 µM
